The source of these data is patent US20110064680A1, “NATURALLY DERIVED WATERPROOFING AGENTS FOR AQUEOUS-BASED PERSONAL CARE PRODUCTS” (Pinova, Inc., priority 2009, published 2011).

This series can be described thus: Solubility of solid sunscreen actives in the hydrogenated wood resins. The class given is physicochemical. Conditions: solvent: hydrogenated wood resins. The text has this: During the making of the sunscreens, it was observed that the systems containing the hydrogenated wood resins more easily solubilzed the solid sunscreens (Oxybenzone and Avobenzone). […]

As to `COc1ccc(C(=O)c2ccccc2)c(O)c1` [Oxybenzone], the “solubility of these actives in the hydrogenated wood resins” value is reported as 24%. As to `COc1ccc(C(=O)CC(=O)c2ccc(C(C)(C)C)cc2)cc1` [Avobenzone], the “solubility of these actives in the hydrogenated wood resins” value was 13%.
